Test results from patent US20240343704A1, “HALO-SUBSTITUTED AMINO PYRIDINE COMPOUNDS AS INHIBITORS OF THE HAEMATOPOIETIC PROGENITOR KINASE 1 (HPK1)” (priority 2021, published 2024).

Legend:
[1] = biological target: T1, Recombinant (1-346) HPK1 (h) (Homo sapiens, UniProt Q92918); experiment: HPK1 Human STE Kinase Enzymatic Radiometric Assay; type: biochemical; conditions: read-out: HPK1 IC50 nM Range*
T1 construct: Recombinant (1-346) HPK1 (h) is incubated with 8 mM MOPS pH 7.0
T1 sequence (Q92918 1-346): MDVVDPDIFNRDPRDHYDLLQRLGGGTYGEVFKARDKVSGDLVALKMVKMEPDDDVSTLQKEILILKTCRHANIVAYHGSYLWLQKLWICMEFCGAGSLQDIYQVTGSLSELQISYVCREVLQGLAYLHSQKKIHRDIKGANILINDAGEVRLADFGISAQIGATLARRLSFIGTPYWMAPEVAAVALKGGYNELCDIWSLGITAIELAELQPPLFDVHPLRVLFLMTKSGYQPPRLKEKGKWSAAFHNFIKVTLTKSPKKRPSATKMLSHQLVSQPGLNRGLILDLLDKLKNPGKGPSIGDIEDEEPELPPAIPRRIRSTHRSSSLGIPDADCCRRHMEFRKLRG
Experimental: A stock solution of 10 mM of test compound is prepared in DMSO. The compound plate was prepared by 3-fold and 9-point serial dilutions. […] The reaction is initiated by The addition of the Mg/ATP mix. After incubation for 40 minutes at RT, the reaction is stopped by the addition of phosphoric acid to a concentration of 0.5%.

[2] = biological target: Lck (h) (Homo sapiens, UniProt P06239); experiment: Lck Human  Kinase Enzymatic Radiometric Assay; type: biochemical; conditions: read-out: Lck IC50 nM Range*
Outline: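 Substrate 33P-incorporation measured by scintillation counting after spotting on P30 filtermat and phosphoric acid washes. Human Lck reacted 40 min at RT in 50 mM Tris pH 7.5 with 10 mM MgAcetate, [gamma-33P]-ATP, 250 uM Cdc2 peptide, 0.1 mM EGTA and 0.1 mM Na3VO4.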

Lck (h), sequence (P06239 whole entry): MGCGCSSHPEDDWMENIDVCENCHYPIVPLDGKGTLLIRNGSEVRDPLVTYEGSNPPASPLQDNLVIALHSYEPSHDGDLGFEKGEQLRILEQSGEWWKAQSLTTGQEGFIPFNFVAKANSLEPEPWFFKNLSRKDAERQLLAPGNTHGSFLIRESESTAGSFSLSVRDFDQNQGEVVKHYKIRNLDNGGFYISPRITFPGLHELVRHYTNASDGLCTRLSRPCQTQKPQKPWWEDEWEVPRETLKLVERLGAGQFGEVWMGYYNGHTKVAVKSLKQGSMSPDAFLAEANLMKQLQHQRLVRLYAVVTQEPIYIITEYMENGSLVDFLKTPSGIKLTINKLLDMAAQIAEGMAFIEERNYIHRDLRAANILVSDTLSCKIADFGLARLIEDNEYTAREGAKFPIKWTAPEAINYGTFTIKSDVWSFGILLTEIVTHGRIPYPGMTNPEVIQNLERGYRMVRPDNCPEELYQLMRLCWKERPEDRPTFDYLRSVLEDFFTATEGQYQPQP

IC50 [1] [nM] | IC50 [2] [nM] | SMILES
0.1 to 10 | > 1000 | CC(C)N1CCN(c2ccc(-c3cc(-c4cc5c(cc4Cl)C(=O)NCC5)c(N)nc3F)cc2)CC1 [I-349, 6-(2-amino-6-fluoro-5-(4-(4-isopropylpiperazin-1-yl)phenyl)pyridin-3-yl)-7-chloro-3,4-dihydroisoquinolin-1(2H)-one]
0.1 to 10 | 101 to 1000 | Nc1nc(F)c(-c2ccc(C3CCOCC3)c([C@@H]3CCCN3)c2)cc1-c1ccc2c(c1)CCNC2=O [I-367, (S)-6-(2-amino-6-fluoro-5-(3-(pyrrolidin-2-yl)-4-(tetrahydro-2H-pyran-4-yl)phenyl)pyridin-3-yl)-3,4-dihydroisoquinolin-1(2H)-one]
11 to 100 | > 1000 | CN1CCc2cc(-c3cc(-c4ccc5c(c4)CCNC5=O)c(N)nc3F)ccc21 [I-253, 6-(2-amino-6-fluoro-5-(1-methylindolin-5-yl)pyridin-3-yl)-3,4-dihydroisoquinolin-1(2H)-one]
0.1 to 10 | > 1000 | Nc1nc(F)c(-c2ccc(C3=CCN(CC4CC4)CC3)cc2)cc1-c1cc2c(cc1F)C(=O)NCC2 [I-297, 6-(2-amino-5-(4-(1-(cyclopropylmethyl)-1,2,3,6-tetrahydropyridin-4-yl)phenyl)-6-fluoropyridin-3-yl)-7-fluoro-3,4-dihydroisoquinolin-1(2H)-one]
0.1 to 10 | > 1000 | CN1CCN(c2ccc(-c3cc(-c4cc5c(cc4F)C(=O)NCC5)c(N)nc3F)c(Cl)c2)CC1 [I-252, 6-(2-amino-5-(2-chloro-4-(4-methylpiperazin-1-yl)phenyl)-6-fluoropyridin-3-yl)-7-fluoro-3,4-dihydroisoquinolin-1(2H)-one]
11 to 100 | > 1000 | Nc1nc(F)c(-c2ccc(C3CCN(CC(F)(F)F)CC3)cc2)cc1-c1cc2c(cc1F)C(=O)NCC2 [I-248, 6-(2-amino-6-fluoro-5-(4-(1-(2,2,2-trifluoroethyl)piperidin-4-yl)phenyl)pyridin-3-yl)-7-fluoro-3,4-dihydroisoquinolin-1(2H)-one]
0.1 to 10 | > 1000 | Nc1nc(F)c(-c2ccc(N3CCN(CC4CC4)CC3)cc2)cc1-c1ccc2c(=O)[nH]cc(F)c2c1 [I-455, 6-(2-amino-5-(4-(4-(cyclopropylmethyl)piperazin-1-yl)phenyl)-6-fluoropyridin-3-yl)-4-fluoroisoquinolin-1(2H)-one]
0.1 to 10 | > 1000 | COc1cc(-c2cc(-c3ccc4c(c3)CCNC4=O)c(N)nc2F)ccc1OC1CCN(C(C)C)CC1 [I-273, 6-(2-amino-6-fluoro-5-(4-((1-isopropylpiperidin-4-yl)oxy)-3-methoxyphenyl)pyridin-3-yl)-3,4-dihydroisoquinolin-1(2H)-one]

Continued, compound first:

SMILES | IC50 [1] [nM] | IC50 [2] [nM]
CCN(CC)S(=O)(=O)c1ccc(-c2cc(-c3ccc4c(c3)CCNC4=O)c(N)nc2F)cc1 [I-65, 4-(6-amino-2-fluoro-5-(1-oxo-1,2,3,4-tetrahydroisoquinolin-6-yl)pyridin-3-yl)-N,N-diethylbenzenesulfonamide] | 11 to 100 | > 1000
Nc1nc(F)c(-c2ccc(C3=CCN(CC(F)F)C3)cc2)cc1-c1ccc2c(c1)CCNC2=O [I-127, 6-(2-amino-5-(4-(1-(2,2-difluoroethyl)-2,5-dihydro-1H-pyrrol-3-yl)phenyl)-6-fluoropyridin-3-yl)-3,4-dihydroisoquinolin-1(2H)-one] | 0.1 to 10 | > 1000
Nc1nc(F)c(-c2ccc(N3CCN(CC4CC4)CC3)cc2)cc1-c1cc2c(cc1F)C(=O)NCC2 [I-213, 6-(2-amino-5-(4-(4-(cyclopropylmethyl)piperazin-1-yl)phenyl)-6-fluoropyridin-3-yl)-7-fluoro-3,4-dihydroisoquinolin-1(2H)-one] | 0.1 to 10 | > 1000
Nc1nc(F)c(-c2ccc(N3CCN(CCF)CC3)cc2)cc1-c1ccc2c(c1)CCNC2=O [I-20, 6-(2-amino-6-fluoro-5-(4-(4-(2-fluoroethyl)piperazin-1-yl)phenyl)pyridin-3-yl)-3,4-dihydroisoquinolin-1(2H)-one] | 0.1 to 10 | > 1000
CC(C)N1CCCCC1c1ccc(-c2cc(-c3ccc4c(c3)CCNC4=O)c(N)nc2F)cc1 (centres unmarked) [I-104, 6-(2-amino-6-fluoro-5-(4-(1-isopropylpiperidin-2-yl)phenyl)pyridin-3-yl)-3,4-dihydroisoquinolin-1(2H)-one] | 0.1 to 10 | > 1000
COCCN1CCC(Oc2ccc(-c3cc(-c4ccc5c(c4)CCNC5=O)c(N)nc3F)cc2C#N)CC1 [I-217, 5-(6-amino-2-fluoro-5-(1-oxo-1,2,3,4-tetrahydroisoquinolin-6-yl)pyridin-3-yl)-2-((1-(2-methoxyethyl)piperidin-4-yl)oxy)benzonitrile] | 0.1 to 10 | > 1000
Nc1nc(F)c(-c2ccc(S(=O)(=O)N3CCCC3)cc2)cc1-c1ccc2c(c1)CCNC2=O [I-99, 6-(2-amino-6-fluoro-5-(4-(pyrrolidin-1-ylsulfonyl)phenyl)pyridin-3-yl)-3,4-dihydroisoquinolin-1(2H)-one] | 11 to 100 | > 1000
CC(C)(C)OC(=O)N1CCC2(CC1)CC(=O)c1cc(-c3cc(-c4ccc5c(c4)CCNC5=O)c(N)nc3F)ccc1O2 [I-174, tert-butyl 6-(6-amino-2-fluoro-5-(1-oxo-1,2,3,4-tetrahydroisoquinolin-6-yl)pyridin-3-yl)-4-oxospiro[chromane-2,4′-piperidine]-1′-carboxylate] | 11 to 100 | > 1000
COCCN1CCC2(CC1)OCc1cc(-c3cc(-c4ccc5c(c4)CCNC5=O)c(N)nc3F)ccc1O2 [I-214, 6-(2-amino-6-fluoro-5-(1′-(2-methoxyethyl)-4H-spiro[benzo[d][1,3]dioxine-2,4′-piperidin]-6-yl)pyridin-3-yl)-3,4-dihydroisoquinolin-1(2H)-one] | 0.1 to 10 | > 1000
CN1CCN(c2ccc(-c3cc(-c4cc5c(cc4F)C(=O)NCC5)c(N)nc3F)cc2F)CC1 [I-247, 6-(2-amino-6-fluoro-5-(3-fluoro-4-(4-methylpiperazin-1-yl)phenyl)pyridin-3-yl)-7-fluoro-3,4-dihydroisoquinolin-1(2H)-one] | 0.1 to 10 | > 1000
CC(C)[C@@H]1CN(c2ccc(-c3cc(-c4ccc5c(c4)CCNC5=O)c(N)nc3F)c(F)c2)CCO1 [I-11, (R)-6-(2-amino-6-fluoro-5-(2-fluoro-4-(2-isopropylmorpholino)phenyl)pyridin-3-yl)-3,4-dihydroisoquinolin-1(2H)-one] | 0.1 to 10 | > 1000
Nc1nc(F)c(-c2ccc(N3CCCC3)cc2)cc1-c1ccc2c(c1)CCNC2=O [I-59, 6-(2-amino-6-fluoro-5-(4-(pyrrolidin-1-yl)phenyl)pyridin-3-yl)-3,4-dihydroisoquinolin-1(2H)-one] | 11 to 100 | > 1000
CN(CC(F)(F)F)C1CCN(c2ccc(-c3cc(-c4ccc5c(c4)CCNC5=O)c(N)nc3F)cc2)C1 (centres unmarked) [I-159, 6-(2-amino-6-fluoro-5-(4-(3-(methyl(2,2,2-trifluoroethyl)amino)pyrrolidin-1-yl)phenyl)pyridin-3-yl)-3,4-dihydroisoquinolin-1(2H)-one] | 0.1 to 10 | > 1000
Nc1nc(F)c(-c2ccc(C3CCCN(CC(F)F)C3)cc2)cc1-c1ccc2c(c1)CCNC2=O (centres unmarked) [I-78, 6-(2-amino-5-(4-(1-(2,2-difluoroethyl)piperidin-3-yl)phenyl)-6-fluoropyridin-3-yl)-3,4-dihydroisoquinolin-1(2H)-one] | 0.1 to 10 | > 1000
